The values that follow come from the NIST ThermoML archive (doi:10.1021/je0505265).

The conditions of this data set: Crystal; DTA.

Molecules are shown by their SMILES. ± gives the expanded uncertainty stated by the source.

As to `CC[C@H]1OC(=O)[C@H](C)[C@@H](O[C@H]2C[C@@](C)(OC)[C@@H](O)[C@H](C)O2)[C@H](C)[C@@H](O[C@@H]2O[C@H](C)C[C@H](N(C)C)[C@H]2O)[C@](C)(O)C[C@@H](C)C(=O)[C@H](C)[C@@H](O)[C@]1(C)O.O.O` [erythromycin A dihydrate], the Normal melting temperature turned out to be 137.7 ± 0.5 °C.
